Assay results from US10485808B2, “Selective progesterone receptor modulators (SPRM) and stabilized estrogen level in patient” (BAYER PHARMA AKTIENGESELLSCHAFT, priority 2017, dated 2019).

Experiments:
Format in all cases: in vivo, human
[1] = tested on: healthy women of reproductive age; test: Study 15818: hot flush events during treatment period; settings: for Hot flush events, Events (%): 12 weeks
Text: Example 3: Hot Flush Event in Study Subject Treated with Compound 1 (Cp1)
See full study description in Example 2.
Hot flush event were reported and monitored during treatment period.

[2] = tested on: women diagnosed with uterine fibroids; test: Study 15788: estradiol concentrations in serum, 1x12 weeks treatment
Procedure: Example 4: Clinical Study in Women Diagnosed with Uterine Fibroids During a 1×12 Weeks/84 Days Treatment with Compound 1
Study protocol (N^o 15788):
Doses: 0.5 mg, 1 mg, 2 mg, or 4 mg once daily
(§1) Route of administration: Oral
Duration of treatment: 1×12 weeks (84 days)
Women, 18 to 50 years old, with uterine fibroids documented by transvaginal or abdominal ultrasound at screening with at least 1 uterine fibroid with largest diameter 3 cm and Heavy Menstrual Bleeding (HMB) 80 mL were eligible for enrolment in the study.
(§2) Following screening visit 1 (Visit 1), there was a screening period of up to 90 days to arrange for complete results of all baseline assessments. […] Every effort was made to keep the duration of the screening period to a minimum.
Eligible subjects were equally randomized to one of the treatment groups (Placebo, 0.5 mg, 1 mg, 2 mg, or 4 mg Compound 1). Treatment was started during the first week of the menstrual cycle following randomization. The treatment period consisted of 12 weeks (84 days) of daily tablet intake.
In this study, estradiol levels were measured • At the End of Treatment (EoT) visit and • Randomization visit 3.

[3] = tested on: women diagnosed with uterine fibroids; test: Study 15788: hot flush events during treatment
Text: Example 5: Hot Flush Events in Study Subject Treated with Compound 1 (Cp1)
See full study description in Example 4.
(§3) Hot flush events were reported and monitored during treatment.

[4] = tested on: women diagnosed with uterine fibroids; test: Study 17541/A1: estradiol concentrations in serum, 1x24 weeks treatment; settings: for Estradiol concentrations in serum, Max / Estradiol concentrations in serum, Mean / Estradiol concentrations in serum, Median / Estradiol concentrations in serum, Min: Cp1 2 mg once daily oral
Procedure: Example 6: Clinical Study in Women Diagnosed with Uterine Fibroids During a 1×24 Weeks Treatment with Compound 1
Study protocol (N^o 17541/A1):
as §1
Duration of treatment: 1×24 weeks
Women, 18 to 50 years old, with uterine fibroids documented by transvaginal or abdominal ultrasound at screening with at least 1 uterine fibroid with largest diameter >3 cm and Heavy Menstrual Bleeding (HMB)>80 mL were eligible for enrolment in the study.
as §2
Eligible subjects were equally randomized to treatment 2 mg of Compound 1. Treatment was started during the first week of the menstrual cycle following randomization. The treatment period consisted of 24 weeks of daily tablet intake.
In this study, estradiol levels were measured • Treatment Visit 3 (corresponding to the end of 12 weeks treatment), • Treatment Visit 6 (corresponding to the end of 24 weeks treatment).

[5] = tested on: women diagnosed with uterine fibroids; test: Study 17541/A1: hot flush events during treatment; settings: Cp1 2.0 mg once daily oral, 24 weeks
Text: Example 7: Hot Flush Events in Study Subject Treated with Compound 1 (Cp1)
See full study description in Example 6.
as §3

[6] = Cp1 0.5 mg once daily oral, End of Treatment (12 weeks)
[7] = Cp1 0.5 mg once daily oral, Randomization
[8] = Cp1 1 mg once daily oral, End of Treatment (12 weeks)
[9] = Cp1 1 mg once daily oral, Randomization
[10] = Cp1 2 mg once daily oral, End of Treatment (12 weeks)
[11] = Cp1 2 mg once daily oral, Randomization
[12] = Cp1 4 mg once daily oral, End of Treatment (12 weeks)
[13] = Cp1 4 mg once daily oral, Randomization
[14] = Treatment Visit 3 (end of 12 weeks treatment)
[15] = Treatment Visit 6 (end of 24 weeks treatment)

## C[C@]12C[C@H](c3ccc(S(C)(=O)=O)cc3)C3=C4CCC(=O)C=C4CC[C@H]3[C@@H]1CC[C@@]2(O)C(F)(F)C(F)(F)F [Compound 1, (11β,17β)-17-Hydroxy-11-[4-(methylsulphonyl)phenyl]-17-(pentafluoroethyl)estra-4,9-dien-3-one]
[1]; Cp1 0.5 mg once daily oral
  Hot flush events, Events (%): 5.6%
[1]; Cp1 1.0 mg once daily oral
  Hot flush events, Events (%): 11.1%
[1]; Cp1 2.0 mg once daily oral
  Hot flush events, Events (%): 17.6%
[1]; Cp1 4.0 mg once daily oral
  Hot flush events, Events (%): 29.4%
[1]; all dose groups 0.5-4 mg
  Severe hot flushes: No severe hot flushes were reported
  Subjects reporting hot flush, total study subjects: 11
[2]; 0.5-4 mg once daily, 12 weeks
  Estradiol levels under treatment compared to baseline: moderately suppressed
  Safety concerns from the data analysed: no safety concerns were identified
[2]; [6]
  Estradiol concentrations in serum, Max: 357.5 pg/mL
  Estradiol concentrations in serum, Mean: 97.3 pg/mL
  Estradiol concentrations in serum, Median: 56.9 pg/mL
  Estradiol concentrations in serum, Min: 8.3 pg/mL
[2]; [7]
  Estradiol concentrations in serum, Max: 318.6 pg/mL
  Estradiol concentrations in serum, Mean: 115.78 pg/mL
  Estradiol concentrations in serum, Median: 100.2 pg/mL
  Estradiol concentrations in serum, Min: 7.1 pg/mL
[2]; [8]
  Estradiol concentrations in serum, Max: 384.9 pg/mL
  Estradiol concentrations in serum, Mean: 72.85 pg/mL
  Estradiol concentrations in serum, Median: 50 pg/mL
  Estradiol concentrations in serum, Min: 11.8 pg/mL
[2]; Cp1 1 mg once daily oral, End of Treatment (12 weeks), listed as Cp1
  Estradiol concentrations in serum, Median: 50.1 pg/mL
[2]; [9]
  Estradiol concentrations in serum, Max: 490.2 pg/mL
  Estradiol concentrations in serum, Mean: 120.72 pg/mL
  Estradiol concentrations in serum, Median: 103.65 pg/mL
  Estradiol concentrations in serum, Min: 21.5 pg/mL
[2]; [10]
  Estradiol concentrations in serum, Max: 433.9 pg/mL
  Estradiol concentrations in serum, Mean: 76.23 pg/mL
  Estradiol concentrations in serum, Median: 50 pg/mL
  Estradiol concentrations in serum, Min: 10.5 pg/mL
[2]; Cp1 2 mg once daily oral, End of Treatment (12 weeks), listed as Cp1
  Estradiol concentrations in serum, Median: 49.95 pg/mL
[2]; [11]
  Estradiol concentrations in serum, Max: 407.8 pg/mL
  Estradiol concentrations in serum, Mean: 111.25 pg/mL
  Estradiol concentrations in serum, Median: 96.6 pg/mL
  Estradiol concentrations in serum, Min: 6.7 pg/mL
[2]; [12]
  Estradiol concentrations in serum, Max: 255.3 pg/mL
  Estradiol concentrations in serum, Mean: 56.51 pg/mL
  Estradiol concentrations in serum, Median: 39 pg/mL
  Estradiol concentrations in serum, Min: 9.5 pg/mL
[2]; Cp1 4 mg once daily oral, End of Treatment (12 weeks), listed as Cp1
  Estradiol concentrations in serum, Median: 38.7 pg/mL
[2]; [13]
  Estradiol concentrations in serum, Max: 347.6 pg/mL
  Estradiol concentrations in serum, Mean: 117.05 pg/mL
  Estradiol concentrations in serum, Median: 101.7 pg/mL
  Estradiol concentrations in serum, Min: 6.8 pg/mL
[2]; all Doses, data not shown
  Mean estradiol values after the EoT: returned to baseline levels
[3]; Cp1 0.5 mg, N = 60, 12 weeks
  Hot flush events, MILD, number of subjects: 5
  Hot flush events, MILD, percent of subjects: 8.3%
  Hot flush events, MODERATE, number of subjects: 0
  Hot flush events, SEVERE, number of subjects: single
  Hot flush events, SEVERE, percent of subjects: 1.7%
  Hot flush events, Total, number of subjects: 6
  Hot flush events, Total, percent of subjects: 0.0%
[3]; Cp1 0.5 mg, N = 60, 12 weeks, listed as Cp1
  Hot flush events, SEVERE, number of subjects: 1
[3]; Cp1 1 mg, N = 61, 12 weeks
  Hot flush events, MILD, number of subjects: 3
  Hot flush events, MILD, percent of subjects: 4.9%
  Hot flush events, MODERATE, number of subjects: 2
  Hot flush events, MODERATE, percent of subjects: 3.3%
  Hot flush events, SEVERE, number of subjects: 0
  Hot flush events, Total, number of subjects: 5
  Hot flush events, Total, percent of subjects: 8.2%
[3]; Cp1 2 mg, N = 61, 12 weeks
  Hot flush events, MILD, number of subjects: 4
  Hot flush events, MILD, percent of subjects: 6.6%
  Hot flush events, MODERATE, number of subjects: 1
  Hot flush events, MODERATE, percent of subjects: 1.6%
  Hot flush events, SEVERE, number of subjects: 0
  Hot flush events, Total, number of subjects: 5
  Hot flush events, Total, percent of subjects: 8.2%
[3]; Cp1 4 mg, N = 60, 12 weeks
  Hot flush events, MILD, number of subjects: 5
  Hot flush events, MILD, percent of subjects: 8.3%
  Hot flush events, MODERATE, number of subjects: 3
  Hot flush events, MODERATE, percent of subjects: 5.0%
  Hot flush events, SEVERE, number of subjects: 0
  Hot flush events, Total, number of subjects: 8
  Hot flush events, Total, percent of subjects: 13.3%
[3]; all dose groups, 12 weeks
  Subjects showing mild to moderate hot flushes, overall: no more than 14%
[4]; 2 mg once daily, 24 weeks
  Estradiol levels under treatment compared to baseline: moderately suppressed
  Safety concerns from the data analysed: no safety concerns were identified
[4]; Baseline
  Estradiol concentrations in serum, Max: 644.2 pg/mL
  Estradiol concentrations in serum, Mean: 135.97 pg/mL
  Estradiol concentrations in serum, Median: 93.55 pg/mL
  Estradiol concentrations in serum, Min: 29.4 pg/mL
[4]; [14]
  Estradiol concentrations in serum, Max: 557.5 pg/mL
  Estradiol concentrations in serum, Mean: 77.46 pg/mL
  Estradiol concentrations in serum, Median: 47.50 pg/mL
  Estradiol concentrations in serum, Min: 11.0 pg/mL
[4]; [15]
  Estradiol concentrations in serum, Max: 132.5 pg/mL
  Estradiol concentrations in serum, Mean: 44.69 pg/mL
  Estradiol concentrations in serum, Median: 42.50 pg/mL
  Estradiol concentrations in serum, Min: 7.9 pg/mL
[4]; data not shown
  Mean estradiol values after the EoT: returned to baseline levels
[5]
  Hot flush events, Events (%): no more than 11.4%
[5]; listed as Cp1
  Hot flush events, Events (%): 11.4%
